Where two headings read alike, the source gives them in different places.
What was measured:
[1] = molecular target: T1, FASN-TE; rTE (recombinant TE domain of human FASN) (Homo sapiens, UniProt P49327); experiment: fluorogenic thioesterase assay; format: biochemical
[2] = molecular target: T1, FASN-TE; rTE (recombinant TE domain of human FASN); experiment: fluorogenic thioesterase assay; format: biochemical; remark: listed apart in the source

T1 sequence (P49327 2218-2511 limits assumed): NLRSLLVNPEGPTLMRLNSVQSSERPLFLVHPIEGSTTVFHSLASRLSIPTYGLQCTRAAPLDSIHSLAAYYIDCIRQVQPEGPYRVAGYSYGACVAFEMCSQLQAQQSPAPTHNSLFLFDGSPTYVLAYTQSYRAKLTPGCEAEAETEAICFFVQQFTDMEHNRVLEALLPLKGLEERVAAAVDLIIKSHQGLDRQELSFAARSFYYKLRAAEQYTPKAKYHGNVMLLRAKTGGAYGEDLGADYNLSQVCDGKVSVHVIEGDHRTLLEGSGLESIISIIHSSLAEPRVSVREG

Row | Structure (SMILES) | IC50 [1] | also measured
1 | CC1=C(Br)C(=O)c2ccccc2C1=O [1a, NS-4390] | – | IC50 ([1]; read-out: rTE IC50, substrate 4-methylumbelliferyl heptanoate): 12.5 µM
2 | CC1=CC(=O)c2ccccc2C1=O [1c, menadione] | 21.9 µM | –
3 | CC1=CC(=O)c2c(O)cccc2C1=O [1d, plumbagin] | 10.9 µM | –
4 | O=C1C=CC(=O)c2c(O)cccc21 [1g, juglone] | 0.1 µM | –
5 | O=C1C=C(N2CCOCC2)C(=O)c2c(O)cccc21 [1h, 8-Hydroxy-2-morpholinonaphthalene-1,4-dione] | 26.4 µM | –
6 | O=C1C=CC(=O)c2c(O)ccc(O)c21 [1i, naphthazarin] | – | IC50 [2]: 3.5 µM
7 | O=C1C=CC(=O)C(SC2CCCC2)=C1 [2e, 2-(Cyclopentylthio)cyclohexa-2,5-diene-1,4-dione] | 6.4 µM | –
8 | CCCCCCCSC1=CC(=O)C=CC1=O [2f, 2-(Heptylthio)cyclohexa-2,5-diene-1,4-dione] | 6.2 µM | –
9 | O=C1C=CC(=O)C(Sc2ccccc2)=C1 [2g, 2-(Phenylthio)cyclohexa-2,5-diene-1,4-dione] | 0.2 µM | –

From publication PMC4441091 (Chemical & pharmaceutical bulletin, 2014)
